Measurements: US12679878B2, “CRF2 receptor agonists and their use in therapy” (SANOFI, priority 2020, dated 2026)
Where two headings read alike, the source gives them in different places. Starred links: 1 amine or outer side, 2 acyl side, 3 side chain; linkers in the order of their positions; H or OH if unused. Non-standard residues stand in square brackets, D forms with d. Residues, ends and D or L forms follow the SMILES beside them. Groups on a side chain read outwards from the residue. *: point of attachment. C18 diacid = O=C(O)CCCCCCCCCCCCCCCCC(=O)*; γGlu = O=C(O)[C@H](CCC(=O)[*:2])N[*:1]; Palmitoyl = CCCCCCCCCCCCCCCC(=O)*; AEEA = NCCOCCOCC(=O)O; Aib = CC(C)(N)C(=O)O

Assays:
human CRF2α receptor = molecular target: T1, human CRF2α receptor (Homo sapiens, UniProt Q13324); experiment: cAMP agonism at human CRF2 α receptor in TeloHEAC cells (Example 7); type: cell-based; conditions: cAMP HTRF, TeloHEAC cells stably expressing human CRF2 α
T1 construct: expressed in transfected cells; host or cells: TeloHEAC
T1 sequence (Q13324 1-411): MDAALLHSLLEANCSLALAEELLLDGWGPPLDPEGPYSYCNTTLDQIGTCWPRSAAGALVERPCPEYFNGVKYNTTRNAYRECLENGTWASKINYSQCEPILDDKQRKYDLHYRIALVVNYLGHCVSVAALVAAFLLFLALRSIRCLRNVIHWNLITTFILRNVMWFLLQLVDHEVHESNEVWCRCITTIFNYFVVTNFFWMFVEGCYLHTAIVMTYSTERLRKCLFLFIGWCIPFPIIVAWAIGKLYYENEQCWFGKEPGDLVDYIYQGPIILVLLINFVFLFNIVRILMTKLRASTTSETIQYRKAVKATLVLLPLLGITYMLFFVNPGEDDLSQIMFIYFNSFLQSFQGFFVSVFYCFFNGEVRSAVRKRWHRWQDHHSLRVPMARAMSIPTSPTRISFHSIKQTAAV
Summary of the method: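 Percent activation was referenced to 1000 nM UCN2 (100%), and EC50 values taken as concentrations giving half of maximal response. The read-out was a homogeneous time-resolved fluorescence cAMP kit, fluorescence ratio 665/620 nm. Thawed cells (2000/well) saw compound for 30 min at RT in buffer with 2 mM IBMX and 0%/0.1% HSA.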

CRF1R receptor = molecular target: T2, CRF1R receptor (Homo sapiens, UniProt P34998); experiment: cAMP activity at anti-target CRF1R, CRF1R-overexpression CHO cell line (Example 9); type: cell-based; conditions: CRF1R-overexpression CHO cell line; for EC50: 0% HSA; for Emax: read-out: Emax (%)
T2 construct: host or cells: CHO-K1 clone 2
T2 sequence (P34998 24-415): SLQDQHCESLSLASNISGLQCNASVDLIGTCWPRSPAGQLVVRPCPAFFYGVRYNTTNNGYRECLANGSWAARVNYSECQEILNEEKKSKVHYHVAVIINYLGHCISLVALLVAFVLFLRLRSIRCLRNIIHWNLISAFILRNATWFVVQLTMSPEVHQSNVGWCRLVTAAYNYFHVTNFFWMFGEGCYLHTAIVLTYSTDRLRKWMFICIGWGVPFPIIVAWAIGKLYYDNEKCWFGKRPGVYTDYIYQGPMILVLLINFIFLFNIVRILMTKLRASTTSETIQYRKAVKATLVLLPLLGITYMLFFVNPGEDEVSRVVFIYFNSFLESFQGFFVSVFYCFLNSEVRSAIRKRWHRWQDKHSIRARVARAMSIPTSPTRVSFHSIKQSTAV
Experimental: Cells were grown in a T175 culture flask placed at 37° C. to near confluence in medium (DMEM/10% FBS) and collected in 2 ml vials in cell culture medium containing 10% DMSO in a concentration of 10-50 million cells/ml. Each vial contained 1.8 ml cells. The vials were slowly frozen to −80° C. in isopropanol and then transferred in liquid nitrogen for storage. Prior to use, frozen cells were thawed quickly at 37° C. and washed (5 min at 900 rpm) with 20 ml cell buffer (1×HBSS; 20 mM HEPES; 0% or 0.1% HSA). Cells were resuspended in assay buffer (cell buffer plus 2 mM IBMX) and adjusted to a cell density of 1 million cells/ml. For measurement, 5 μl cells (final […]) and 5 μL of test compound were added to a 384-well plate, followed by incubation for 30 minutes at room temperature.
The CAMP content of cells was determined using a kit from Cisbio Corp. (cat. no. 62AM4PEC) based on HTRF (Homogenous Time Resolved Fluorescence). […] The percent activity value (E %) was calculated by setting 1000 nM of urocortin 2 (UCN2) as 100%.
A CRF1R-overexpression CHO cell line was used in this study.

[1] = 0% HSA, read-out: EC50 [nM], 0% HSA
[2] = 0.1% HSA, read-out: EC50 [nM], 0.1% HSA

Row | SMILES | EC50 (human CRF2α receptor; [1]) | EC50 (CRF1R receptor) | Emax (CRF1R receptor) | EC50 (human CRF2α receptor; [2])
1 | CCCCCCCCCCCCCCCC(=O)N[C@@H](CCC(=O)NCCCC[C@H](NC(=O)[C@H](CC(C)C)NC(=O)CNC(=O)[C@@H](NC(=O)[C@@H]1CCCN1C(=O)[C@@H](NC(=O)[C@H](CC(=O)O)NC(=O)[C@H](CC(C)C)NC(=O)[C@H](CO)NC(=O)[C@H](CC(C)C)NC(=O)[C@@H](NC(=O)[C@@H](N)[C@@H](C)CC)C(C)C)C(C)C)[C@@H](C)CC)C(=O)N[C@@H](CCC(N)=O)C(=O)N[C@@H](CCCCN)C(=O)N[C@@H](CC(C)C)C(=O)N[C@@H](CC(C)C)C(=O)N[C@@H](CCCCN)C(=O)N[C@@H](CCC(N)=O)C(=O)N[C@@H](CCC(N)=O)C(=O)N[C@@H](CCCNC(=N)N)C(=O)N[C@@H](CCC(N)=O)C(=O)N[C@@H](CCCNC(=N)N)C(=O)N[C@@H](CCCCN)C(=O)N[C@@H](CCC(=O)O)C(=O)N[C@@H](CCCNC(=N)N)C(=O)N[C@@H](CCC(N)=O)C(=O)N[C@@H](CCC(N)=O)C(=O)N[C@@H](C)C(=O)N[C@@H](CCC(=O)O)C(=O)N[C@H](C(=O)N[C@@H](CC(N)=O)C(=O)N[C@@H](C)C(=O)N[C@@H](CCCNC(=N)N)C(=O)N[C@H](C(=O)N[C@@H](CC(C)C)C(=O)N[C@@H](C)C(=O)N[C@@H](CCCNC(=N)N)C(=O)N[C@H](C(N)=O)C(C)C)[C@@H](C)CC)[C@@H](C)O)C(=O)O [compound 5] (H-IVLSLDVPIGLK([γGlu-Palmitoyl])QKLLKQQRQRKERQQAETNARILARV-NH2; N-terminus assumed) | 0.04 nM | > 1000 nM | 37.4% | –
2 | CCCCCCCCCCCCCCCC(=O)N[C@@H](CCC(=O)NCCCC[C@H](NC(=O)[C@@H](NC(=O)[C@H](CCCCN)NC(=O)[C@@H](NC(=O)[C@@H]1CCCN1C(=O)[C@@H](NC(=O)[C@H](CC(=O)O)NC(=O)[C@H](CC(C)C)NC(=O)[C@H](CO)NC(=O)[C@H](CC(C)C)NC(=O)[C@@H](NC(=O)[C@@H](N)Cc1ccccc1)[C@@H](C)O)C(C)C)[C@@H](C)O)[C@@H](C)CC)C(=O)N[C@@H](CCC(N)=O)C(=O)N[C@@H](CCCCN)C(=O)N[C@@H](CC(C)C)C(=O)N[C@@H](CC(C)C)C(=O)N[C@@H](CCCCN)C(=O)N[C@@H](CCC(N)=O)C(=O)N[C@@H](CCC(=O)O)C(=O)N[C@@H](CCCCN)C(=O)N[C@@H](CCC(N)=O)C(=O)N[C@@H](CCCNC(=N)N)C(=O)N[C@@H](CCCCN)C(=O)N[C@@H](CCC(N)=O)C(=O)N[C@@H](CCCCN)C(=O)N[C@@H](CCC(N)=O)C(=O)N[C@@H](CCC(N)=O)C(=O)N[C@@H](C)C(=O)N[C@@H](CCCCN)C(=O)N[C@H](C(=O)N[C@@H](CC(N)=O)C(=O)N[C@@H](C)C(=O)N[C@@H](CCCCN)C(=O)N[C@H](C(=O)N[C@@H](CC(C)C)C(=O)N[C@@H](C)C(=O)N[C@@H](CCCNC(=N)N)C(=O)N[C@H](C(N)=O)C(C)C)[C@@H](C)CC)[C@@H](C)O)C(=O)O [compound 12] (H-FTLSLDVPTKIK([γGlu-Palmitoyl])QKLLKQEKQRKQKQQAKTNAKILARV-NH2) | 0.09 nM | > 1000 nM | 41.8% | –
3 | CCCCCCCCCCCCCCCC(=O)N[C@@H](CCC(=O)NCCCC[C@H](NC(=O)[C@H](CC(C)C)NC(=O)[C@H](CCCCN)NC(=O)[C@@H](NC(=O)[C@@H]1CCCN1C(=O)[C@H](NC(=O)[C@H](CC(=O)O)NC(=O)[C@H](CC(C)C)NC(=O)[C@H](CO)NC(=O)[C@H](CC(C)C)NC(=O)[C@@H](NC(=O)[C@@H](N)[C@@H](C)CC)C(C)C)C(C)C)[C@@H](C)O)C(=O)N[C@@H](CCC(N)=O)C(=O)N[C@@H](CCCCN)C(=O)N[C@@H](CC(C)C)C(=O)N[C@@H](CC(C)C)C(=O)N[C@@H](CCCCN)C(=O)N[C@@H](CCC(N)=O)C(=O)N[C@@H](CCC(=O)O)C(=O)N[C@@H](CCCNC(=N)N)C(=O)N[C@@H](CCC(N)=O)C(=O)N[C@@H](CCCNC(=N)N)C(=O)N[C@@H](CCCCN)C(=O)N[C@@H](CCC(=O)O)C(=O)NC(C)(C)C(=O)N[C@@H](CCC(=O)O)C(=O)N[C@@H](CCC(N)=O)C(=O)N[C@@H](C)C(=O)N[C@@H](CCC(=O)O)C(=O)N[C@@H](CCCCN)C(=O)N[C@@H](CC(N)=O)C(=O)N[C@@H](CCCCN)C(=O)N[C@@H](CCCNC(=N)N)C(=O)N[C@H](C(=O)N[C@@H](CC(C)C)C(=O)N[C@@H](CCC(=O)O)C(=O)N[C@@H](CCCNC(=N)N)C(=O)N[C@H](C(N)=O)C(C)C)[C@@H](C)CC)C(=O)O [compound 21] (H-IVLSLD[dV]PTKLK([γGlu-Palmitoyl])QKLLKQERQRKE[Aib]EQAEKNKRILERV-NH2; N-terminus assumed) | 0.02 nM | – | 59.2% | –
4 | CC[C@H](C)[C@H](NC(C)=O)C(=O)N[C@H](C(=O)N[C@@H](CC(C)C)C(=O)N[C@@H](CO)C(=O)N[C@@H](CC(C)C)C(=O)N[C@@H](CC(=O)O)C(=O)N[C@@H](C(=O)N1CCC[C@H]1C(=O)N[C@H](C(=O)N[C@@H](CCCCN)C(=O)N[C@@H](CC(C)C)C(=O)N[C@@H](CCCCNC(=O)COCCOCCNC(=O)COCCOCCNC(=O)CC[C@H](NC(=O)CCCCCCCCCCCCCCCCC(=O)O)C(=O)O)C(=O)N[C@@H](CCC(N)=O)C(=O)N[C@H](C(=O)N[C@@H](CC(C)C)C(=O)N[C@@H](CC(C)C)C(=O)N[C@@H](CCC(=O)O)C(=O)N[C@@H](CCC(N)=O)C(=O)N[C@@H](CCC(=O)O)C(=O)N[C@@H](CCCNC(=N)N)C(=O)N[C@@H](CCC(N)=O)C(=O)N[C@@H](CCC(=O)O)C(=O)NC(C)(C)C(=O)N[C@@H](CCC(=O)O)C(=O)N[C@@H](CCCNC(=N)N)C(=O)N[C@@H](CCC(=O)O)C(=O)N[C@@H](CCC(N)=O)C(=O)N[C@@H](C)C(=O)N[C@@H](CCC(=O)O)C(=O)N[C@H](C(=O)N[C@@H](CC(N)=O)C(=O)N[C@@H](CCCCN)C(=O)N[C@@H](CCC(N)=O)C(=O)N[C@H](C(=O)N[C@@H](CC(C)C)C(=O)N[C@@H](CCC(=O)O)C(=O)N[C@@H](CCC(N)=O)C(=O)N[C@H](C(N)=O)C(C)C)[C@@H](C)CC)[C@@H](C)O)[C@@H](C)CC)[C@@H](C)CC)C(C)C)C(C)C [compound 160] (Ac-IVLSLD[dV]PIKLK([AEEA-AEEA-γGlu-C18 diacid])QILLEQERQE[Aib]EREQAETNKQILEQV-NH2) | 8.56 nM | > 1000 nM | 20.8% | 28.9 nM
5 | CC[C@H](C)[C@H](NC(C)=O)C(=O)N[C@H](C(=O)N[C@@H](CC(C)C)C(=O)N[C@@H](CO)C(=O)N[C@@H](CC(C)C)C(=O)N[C@@H](CC(=O)O)C(=O)N[C@@H](C(=O)N1CCC[C@H]1C(=O)N[C@H](C(=O)N[C@@H](CCCCN)C(=O)N[C@@H](CC(C)C)C(=O)N[C@@H](CCCCNC(=O)COCCOCCNC(=O)COCCOCCNC(=O)CC[C@H](NC(=O)CCCCCCCCCCCCCCCCC(=O)O)C(=O)O)C(=O)N[C@@H](CCC(N)=O)C(=O)N[C@H](C(=O)N[C@@H](CC(C)C)C(=O)N[C@@H](CC(C)C)C(=O)N[C@@H](CCC(=O)O)C(=O)N[C@@H](CCC(N)=O)C(=O)N[C@@H](CCC(=O)O)C(=O)N[C@@H](CCCNC(=N)N)C(=O)N[C@@H](CCC(N)=O)C(=O)N[C@@H](CCC(=O)O)C(=O)NC(C)(C)C(=O)N[C@@H](CCC(=O)O)C(=O)N[C@@H](CCCNC(=N)N)C(=O)N[C@@H](CCC(=O)O)C(=O)N[C@@H](CCC(N)=O)C(=O)N[C@@H](C)C(=O)N[C@@H](CCC(=O)O)C(=O)N[C@@H](CCCCN)C(=O)N[C@@H](CC(N)=O)C(=O)N[C@@H](CCC(=O)O)C(=O)N[C@@H](CCC(N)=O)C(=O)N[C@H](C(=O)N[C@@H](CC(C)C)C(=O)N[C@@H](CCC(=O)O)C(=O)N[C@@H](CCC(N)=O)C(=O)N[C@H](C(N)=O)C(C)C)[C@@H](C)CC)[C@@H](C)CC)[C@@H](C)CC)C(C)C)C(C)C [compound 161] (Ac-IVLSLD[dV]PIKLK([AEEA-AEEA-γGlu-C18 diacid])QILLEQERQE[Aib]EREQAEKNEQILEQV-NH2) | 36 nM | > 1000 nM | 3.42% | 977 nM
